One test deals with T1, CDK2/Cyclin E (Homo sapiens, UniProt P24941).
T1 construct: purchased Eurofins 14-475
The test is described as follows: CDK2/Cyclin E enzymatic phosphorylation assay (Caliper mobility shift). Further: 1.0 mM ATP or ATP Km. It is filed as biochemical. The note with it: read-out: Enzyme CDK2/cyclin E IC50. As to the method: (§1) Reactions proceeded until between 10% to 20% total peptides were phosphorylated at room temperature (25° C.) and were terminated with 35 mM 2,2′,2″,2′″-(ethane-1,2-diyldinitrilo)tetraacetic acid (EDTA). Product was detected using the Caliper mobility shift detection method where the phosphorylated peptide (product) and substrate were electrophoretically separated and measured. Percent activity was plotted against log concentration of compound and points to generate an apparent IC50.

For another test, the target named is T2, CDK1/Cyclin B1 (Homo sapiens, UniProt P06493).
T2 construct: GST; purchased BPS 40454
T2 sequence (P06493 whole entry): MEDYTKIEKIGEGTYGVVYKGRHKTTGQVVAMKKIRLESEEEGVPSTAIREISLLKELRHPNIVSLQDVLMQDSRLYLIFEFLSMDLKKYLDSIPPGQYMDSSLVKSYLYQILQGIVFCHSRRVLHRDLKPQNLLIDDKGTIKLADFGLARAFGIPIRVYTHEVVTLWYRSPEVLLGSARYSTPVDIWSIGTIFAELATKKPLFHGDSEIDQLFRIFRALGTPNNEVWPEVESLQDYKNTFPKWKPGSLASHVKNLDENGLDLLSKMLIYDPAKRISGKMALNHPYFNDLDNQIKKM
T2 sequence (P14635 whole entry partner): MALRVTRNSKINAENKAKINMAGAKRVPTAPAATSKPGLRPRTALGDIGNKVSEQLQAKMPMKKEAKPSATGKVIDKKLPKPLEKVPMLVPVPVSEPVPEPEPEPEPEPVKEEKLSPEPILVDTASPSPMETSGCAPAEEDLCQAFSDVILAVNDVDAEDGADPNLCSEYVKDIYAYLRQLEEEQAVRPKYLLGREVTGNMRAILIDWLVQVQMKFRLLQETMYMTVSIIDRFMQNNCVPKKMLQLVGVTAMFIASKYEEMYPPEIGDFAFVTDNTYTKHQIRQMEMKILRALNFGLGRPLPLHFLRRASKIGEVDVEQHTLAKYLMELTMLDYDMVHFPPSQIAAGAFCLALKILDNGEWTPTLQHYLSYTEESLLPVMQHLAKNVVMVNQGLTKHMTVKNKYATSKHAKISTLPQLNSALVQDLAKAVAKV
The test is described as follows: CDK1/Cyclin B1 enzymatic phosphorylation assay (Caliper mobility shift). It is filed as biochemical. The following applies: read-out: Enzyme CDK1/cyclin B1 IC50. As to the method: as §1

For `Cc1cc(Nc2cnc3cnn([C@@H](C)C4CCOCC4)c3n2)n[nH]1` [Example 54, (S)-N-(5-methyl-1H-pyrazol-3-yl)-1-(1-(tetrahydro-2H-pyran-4-yl)ethyl)-1H-pyrazolo[3,4-b]pyrazin-6-amine], the results for the IC50 on CDK2/Cyclin E and on CDK1/Cyclin B1 were 26 nM and 3670 nM, respectively.
As for `C[C@H](C1CCOCC1)n1ncc2ncc(Nc3cc(C4COC4)[nH]n3)nc21` [Example 43, (R)-N-(5-(oxetan-3-yl)-1H-pyrazol-3-yl)-1-(1-(tetrahydro-2H-pyran-4-yl)ethyl)-1H-pyrazolo[3,4-b]pyrazin-6-amine], the IC50 on CDK2/Cyclin E stood at 21.4 nM; on CDK1/Cyclin B1, 1650 nM.
As to `Cc1nn(Cc2cccnc2)c2nc(Nc3cc(C(C)C)[nH]n3)cnc12` [Example 7, N-(5-isopropyl-1H-pyrazol-3-yl)-3-methyl-1-(pyridin-3-ylmethyl)-1H-pyrazolo[3,4-b]pyrazin-6-amine], the IC50 on CDK2/Cyclin E is 1.3 nM; at CDK1/Cyclin B1 it was 234 nM.
For `Cc1cc(Nc2cnc3cnn(Cc4cccnc4)c3n2)n[nH]1` [Example 3, N-(5-methyl-1H-pyrazol-3-yl)-1-(pyridin-3-ylmethyl)-1H-pyrazolo[3,4-b]pyrazin-6-amine], the figures for the IC50 at CDK2/Cyclin E and on CDK1/Cyclin B1 were 78.1 nM and 9140 nM, respectively.
In the same order, the values of `c1ccc(Cn2ncc3ncc(Nc4cc(C5COC5)[nH]n4)nc32)cc1` [Example 44, 1-benzyl-N-(5-(oxetan-3-yl)-1H-pyrazol-3-yl)-1H-pyrazolo[3,4-b]pyrazin-6-amine] are 18.5 nM and 2220 nM.
On to `COc1ncccc1[C@H](C)n1ncc2ncc(Nc3cc(C)[nH]n3)nc21` [Example 23, (S)-1-(1-(2-methoxypyridin-3-yl)ethyl)-N-(5-methyl-1H-pyrazol-3-yl)-1H-pyrazolo[3,4-b]pyrazin-6-amine], for which the values for the IC50 on CDK2/Cyclin E and on CDK1/Cyclin B1 were 14.1 nM and 1540 nM, respectively.

The values above are taken from patent US20260217717A1, “CDK2 INHIBITORS” (BLUEPRINT MEDICINES CORPORATION, priority 2023, published 2026).
